Test results as given in patent US20150276714A1, “METHOD OF IDENTIFYING OR EVALUATING BENEFICIAL ACTIVES AND COMPOSITIONS CONTAINING THE SAME” (The Procter & Gamble Company, priority 2012, published 2015).

Key:
[1] = test system: human dermal fibroblasts (BJ cell line); assay: Oxygen consumption rate (oxidative phosphorylation), XF Extracellular Flux Analyzer; format: cell-based
Description: This method enables the non-lethal, simultaneous detection of metabolic indicators associated with the oxidative phosphorylation and glycolysis metabolic pathways in a controlled environment. The method also enables the collection of kinetic data. When assessing the metabolic response to a stressor or test agent, it is important to assess both metabolic pathways simultaneously to understand how the two metabolic pathways interact with the stressor or test agent and/or to one another. Additionally, it is important to monitor the metabolic pathways in real time (i.e., repeating periodic measurements) to observe trends and/or transient responses that may be missed when using methods that provide only static data. Thus, destructive tests are not suitable for use herein since they typically only allow for a single measurement. With regard to the fibroblasts discussed above in FIGS. 5A, 5B, 5C, 5D, 5E, 6, 7A, 7B, 7C, 7D, 7E and 8, frozen human dermal fibroblasts were obtained from the BJ cell line commercially available from ATCC, Bethesda, Md. […] Oxygen consumption rate and extracellular acidification rate may be detected using an XF Extracellular Flux Analyzer or equivalent. […]

[2] = test system: human dermal fibroblasts (BJ cell line); assay: Extracellular acidification rate (glycolysis), XF Extracellular Flux Analyzer; format: cell-based
Description: This method enables the non-lethal, simultaneous detection of metabolic indicators associated with the oxidative phosphorylation and glycolysis metabolic pathways in a controlled environment. The method also enables the collection of kinetic data. When assessing the metabolic response to a stressor or test agent, it is important to assess both metabolic pathways simultaneously to understand how the two metabolic pathways interact with the stressor or test agent and/or to one another. Additionally, it is important to monitor the metabolic pathways in real time (i.e., repeating periodic measurements) to observe trends and/or transient responses that may be missed when using methods that provide only static data. Thus, destructive tests are not suitable for use herein since they typically only allow for a single measurement. With regard to the fibroblasts discussed above in FIGS. 5A, 5B, 5C, 5D, 5E, 6, 7A, 7B, 7C, 7D, 7E and 8, frozen human dermal fibroblasts were obtained from the BJ cell line commercially available from ATCC, Bethesda, Md. The fibroblasts were grown to 70-80% confluence in a culture medium of Eagle's Minimum Essential Medium (“EMEM”) supplemented with 10% fetal bovine serum (“FBS”) and gentamicin/amphotericin B ×500 solution (EMEM and FBS are available from ATCC, and gentamicin/amphotericin B ×500 solution is available from Invitrogen). The fibroblasts were plated at 1×10^5 cells per well in Gelatin-coated plates 24 hours prior to testing. Each well included 100 μL of the fibroblast medium described above. A test medium was made from Dulbecco's Modified Eagle Medium (available from Seahorse Bioscience), 25 mM glucose and 1 mM pyruvate. The test medium was warmed to 37° C. and the pH adjusted to 7.4. The cells were grown and plated at 37° C. and 5% CO2 air. The fibroblast medium in the wells was replaced by the test medium 1 hour prior to taking measurements. Oxygen consumption rate and extracellular acidification rate may be detected using an XF Extracellular Flux Analyzer or equivalent. […]

In the case of `NC(=O)c1cccnc1` [niacinamide], the “effect on oxphos metabolism” value ([1]; 1.0 mM niacinamide by itself) is reported as “no significant affect on the oxphos metabolism”, the “effect on OCR in presence of hydrogen peroxide” value ([1]; niacinamide 1.0 mM in combination with […] hydrogen peroxide) is reported as “lessen the initial decrease in OCR somewhat” and the “effect on hydrogen peroxide-induced decrease in glycolysis metabolism” value ([2]; plate 1, 0.1 mM and […] niacinamide in combination with […] hydrogen peroxide) is reported as “lessen the detrimental effect of the hydrogen peroxide on glycolysis metabolism”. For the same compound, the “effect on hydrogen peroxide-induced decrease in extracellular acidification rate” value ([2]; plate 2, 0.5 mM and 1.0 mM niacinamide in combination with […] hydrogen peroxide) was “prevent the acidification rate from decreasing below the basal value” and the “effect on fibroblast glycolysis” value ([2]; plate 2, 1.0 mM niacinamide by itself) was “substantially no effect on fibroblast glycolysis”.
